Source: patent US20180024136A1, “Development of ABCG2-Sensitive Fluorescent Probe For Isolation of ABCG2low Neural Stem/Progenitor Cells” (National University of Singapore, priority 2015, published 2018)

What was measured:
[1] = tested on: E14.5 mouse embryonic brain cells; assay: Neurosphere formation of FACS-sorted E14.5 embryonic brain cells; format: cell-based; conditions: 6 days culture, >50 μm diameter, 10,000 cells/well
From the text: For the counting of the number of neurosphere, we selected 6 days-cultured neurospheres having larger than 50 μm of diameter. The whole neurospheres in a well were counted to reduce random counting error using EVOS microscope (Advanced Microscopy Group).
E14.5 embryos were obtained from C57BL/6 pregnant mice. Cerebral cortices were removed and triturated into single-cell suspension by digestion of dissected tissues with StemPro® Accutase® (Invitrogen) and filtered through 40 μm nylon mesh. The brain cells were collected by centrifugation with 400×g for 3 min and resuspended in neurosphere growth medium [DMEM/F12 supplemented with 2% B27 (without vitamin A), bFGF (10 ng/ml), EGF (20 ng/ml), 1× anti-anti]. The cells were stained for 1 hour with 1 μM of CDg13 in neurosphere growth medium. After collecting cells by centrifuge as described above, the cells were resuspended to BSA-free DMEM (phenol red free) and added propidium iodide (PI) at a concentration of 1 μg/ml to distinguish dead cells. FACS sorting was performed using the MoFlo XDP cell sorter (Beckman Coulter). Cells were sorted by pre-gating with FSC/SSC properties to exclude small debris having FSC^low/SSC^low. To isolate CDg13 stained cell population, we used a 488 nm laser excitation and a 529/28 BP filter to collect emitted light. Dead cells stained by PI were detected with a 488 nm excitation and a 620/29 BP emission. […]

NS-5 cells [2] = assay: Subcellular co-localization with organelle trackers by confocal microscopy; format: cell-based, mouse
Method: Hoechst 33342 (2 μM) and CDg13 (1 μM) were added to the cell culture medium. After incubation for 1 hour, culture media were changed with BSA-free medium to maintain CDg13 staining. The organelle specific chemical probes, ER-Tracker™ Red, BODIPY® TR Ceramide, LysoTracker® Red DND-99 and MitoTracker® Deep Red FM, were used to stain endoplasmic reticulum, Golgi apparatus, lysosome and mitochondria, respectively according to manufacturer's instructions (Molecular Probe). The subcellular staining was observed under confocal microscope and their co-localizations were analyzed by Pearson's Collection and Mander's overlap using NIS-Elements software of Eclipse Ti microscope (Nikon).
NS-5 cells stained with CDg13, Hoechst33342 and/or organelle markers were observed using A1R+si confocal microscope (Nikon) within 1 hour after staining. The live NS-5 cells were loaded into a pre-heated plate with supplemented 5% CO2. Fast scanning less than 250 ms with 4 times scan were used to prevent phototoxicity onto the cells.

mouse NSPCs = assay: Neurosphere size after co-incubation with probe; format: cell-based; conditions: 1 μM, 7 days
NS-5 cells [3] = assay: DOFLA screening: live cell staining of MEF, mESC, NS5 and differentiated NS5; format: cell-based, mouse; conditions: 1 μM, 1 hour, NS5, D-NS5
Method: The screening platform was composed of mouse embryonic fibroblast (MEF), mouse embryonic stem cells (mESC), NS5 and differentiated NS5 (D-NS5) (FIG. 4). A derivate from the CF library was selected having eleven saturated carbon chain (CF-C11), named as compound of designation green 13 (CDg13, λabs/λem=520/553 nm; quantum yield=0.82) (FIG. 4A, Table 3). […] To characterize the subcellular target of the CDg13 probe, the image of CDg13 using confocal microscopy was analyzed. The CDg13 stained organelle was clearly merged with the staining of a molecular probe that targeted endoplasmic reticulum (ER), but not with Golgi, lysosome, and mitochondria targeted probes (FIG. 4C). The value of co-localization with ER was appeared as 0.97 on both of Pearson's Collection and Mander's overlap, whereas other organelle markers were below 0.83.
Screening of fluorescent probes of DOFL was conducted using high-throughput imaging analysis as previously described^7.
Hoechst 33342 (2 μM) and CDg13 (1 μM) were added to the cell culture medium. After incubation for 1 hour, culture media were changed with BSA-free medium to maintain CDg13 staining. […] The subcellular staining was observed under confocal microscope and their co-localizations were analyzed by Pearson's Collection and Mander's overlap using NIS-Elements software of Eclipse Ti microscope (Nikon).

[4] = tested on: neurospheres from E14.5 mouse embryonic brain; assay: Neuronal differentiation of primary neurospheres (Tuj1/GFAP immunostaining); format: cell-based; conditions: neurospheres from sorted cells, 150 per group
Method: All animal experiments were approved by the Biomedical Research Council Singapore, Institutional Animal Care and Use Committee (IACUC). E14.5 embryos were obtained from C57BL/6 pregnant mice. Cerebral cortices were removed and triturated into single-cell suspension by digestion of dissected tissues with StemPro® Accutase® (Invitrogen) and filtered through 40 μm nylon mesh. Dissociated cells were seeded at a density of 1×10^3 cells/cm^2 in neurosphere growth medium [DMEM/F12 supplemented with 2% B27 (without vitamin A), bFGF (10 ng/ml), EGF (20 ng/ml), 1× anti-anti]. All the cell culture components were from Invitrogen. Passaging of neurosphere was conducted through single cell dissociation of neurospheres as described above. […]
More than a hundred of differentiated neurospheres were fixed in paraformaldehyde (4%, w/v) for 15 min, permeabilized in Triton X-100 (0.1% v/v), and blocked with BSA (3% w/v) for 1 hour. […] The existence of clear Tuj1 positive cells inside a differentiated neurosphere were counted as neuron-contained neurospheres. Neuronal clumps were counted if more than 10 of nuclei of neuronal cells are packaged each other. Neurite outgrowth of Tuj1 positive cells were measured using neurite outgrowth module parameter of MetaXpress ([…]) with maximum width of 1 μm. The phases with high neurite outgrowth were selected and counted at least 300 cells.

CCCCCCCCCN(CCCCCCCCC)C(=O)c1ccc(-c2c3cc(Cl)c(=O)cc-3oc3cc(O)c(Cl)cc23)cc1 [CDg13]
number of neurospheres of CDg13^bright cells compared to CD133^high cells [1]: 1.5 fold
number of neurospheres of CDg13^bright cells compared to unsorted brain cells [1]: 5.9 fold
co-localization with other organelle markers (NS-5 cells [2]; Golgi, lysosome, mitochondria trackers): below 0.83
co-localization with ER (Pearson's Collection and Mander's overlap) (NS-5 cells [2]; live NS-5 cells, ER tracker): 0.97
effect on neurosphere size (mouse NSPCs): no significant difference in neurosphere size
neurosphere size on average (mouse NSPCs; third passage): 109 μm
cell type staining selectivity (NS-5 cells [3]): preferentially stains undifferentiated NS-5 cells, a NSPC line, but not other cell types
neurospheres differentiated to neuron in the whole spheres [4]: 95.3%
